Measurements published in PMC3285443 (European Journal of Pharmaceutical Sciences, 2010).
≈ marks a conversion by molar mass, not a printed value. Like-named read-outs stand apart in the source and are kept apart here.

Tests used:
[1] = experimental LogP determination; details: for logP at 24 h: 1-octanol / 0.1 M sodium phosphate buffer, pH 7.4
[2] = compartmental pharmacokinetics after oral gavage; details: female, Labrador retriever, dog, plasma, 0.3 mg/kg
[3] = cassette-dosing oral pharmacokinetic screening in dogs; details: dog; for AUC / half-life: female, Labrador retriever, plasma, po, 0.3 mg/kg; for C24/IC50 (ratio of blood concentration over the IC50 with recombinant human sEH after 24 hour): n=1
[4] = compartmental pharmacokinetics after i.v. administration in dogs; details: female, Labrador retriever, dog, plasma, iv
[5] = physchem; details: 25 °C, pH 7.4, aqueous buffer, thermodynamic from solid
[6] = in vivo; details: female, Labrador retriever, dog, po, 0.3 mg/kg
[7] = in vivo; details: female, Labrador retriever, dog, iv
[8] = water solubility determination; details: 0.1 M sodium phosphate buffer (pH 7.4), 25°C, 24 hours
[9] = target: T1, human recombinant sEH (Homo sapiens, UniProt P34913); assay: radioactive t-DPPO assay, purified recombinant human sEH; type: biochemical
T1 sequence (P34913 1-555): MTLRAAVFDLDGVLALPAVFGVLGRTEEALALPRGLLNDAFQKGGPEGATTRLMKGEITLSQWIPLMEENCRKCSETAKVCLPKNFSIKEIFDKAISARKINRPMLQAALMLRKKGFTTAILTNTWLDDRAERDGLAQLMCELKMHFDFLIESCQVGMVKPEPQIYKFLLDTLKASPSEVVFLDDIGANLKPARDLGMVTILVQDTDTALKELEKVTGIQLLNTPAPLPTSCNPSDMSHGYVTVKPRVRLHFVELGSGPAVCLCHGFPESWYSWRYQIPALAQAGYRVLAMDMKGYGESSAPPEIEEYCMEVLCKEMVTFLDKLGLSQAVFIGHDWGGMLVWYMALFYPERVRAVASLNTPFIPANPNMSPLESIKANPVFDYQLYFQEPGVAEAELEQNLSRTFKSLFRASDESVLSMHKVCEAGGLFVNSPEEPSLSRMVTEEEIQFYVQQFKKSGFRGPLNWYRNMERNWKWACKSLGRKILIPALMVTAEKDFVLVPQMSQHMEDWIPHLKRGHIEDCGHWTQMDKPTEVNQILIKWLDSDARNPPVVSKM

[10] = target: T2, recombinant murine sEH (Mus musculus, UniProt P34914); assay: fluorescent assay with CMNPC substrate, recombinant mouse sEH; type: biochemical
T2 sequence (P34914 1-554): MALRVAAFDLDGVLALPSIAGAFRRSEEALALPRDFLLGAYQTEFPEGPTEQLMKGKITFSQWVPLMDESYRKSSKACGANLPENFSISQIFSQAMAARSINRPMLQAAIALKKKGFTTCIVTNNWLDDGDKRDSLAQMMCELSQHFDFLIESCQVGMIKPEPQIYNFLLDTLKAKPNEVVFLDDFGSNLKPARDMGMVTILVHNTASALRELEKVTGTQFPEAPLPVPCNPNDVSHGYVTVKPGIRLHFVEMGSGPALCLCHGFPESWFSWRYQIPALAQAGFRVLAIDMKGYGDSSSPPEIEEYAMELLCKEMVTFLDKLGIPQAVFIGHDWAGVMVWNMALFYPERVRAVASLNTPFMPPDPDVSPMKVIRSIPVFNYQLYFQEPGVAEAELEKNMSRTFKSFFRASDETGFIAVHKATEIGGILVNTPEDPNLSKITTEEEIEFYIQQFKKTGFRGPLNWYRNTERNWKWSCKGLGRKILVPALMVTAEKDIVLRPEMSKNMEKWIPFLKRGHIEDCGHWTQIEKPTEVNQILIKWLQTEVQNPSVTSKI

[11] = target: T3, recombinant human soluble epoxide hydrolase (Homo sapiens, UniProt P34913); assay: fluorescent assay with CMNPC substrate, recombinant human sEH; type: biochemical
T3 sequence (P34913 1-555): T1 sequence (P34913 1-555)

[12] = target: T4, purified human recombinant sEH (Homo sapiens, UniProt P34913); type: biochemical
T4 sequence (P34913 1-555): T1 sequence (P34913 1-555)

[13] = target: T5, recombinant rat sEH (Rattus norvegicus, UniProt P80299); assay: fluorescent assay with CMNPC substrate, recombinant rat sEH; type: biochemical
T5 sequence (P80299 1-554): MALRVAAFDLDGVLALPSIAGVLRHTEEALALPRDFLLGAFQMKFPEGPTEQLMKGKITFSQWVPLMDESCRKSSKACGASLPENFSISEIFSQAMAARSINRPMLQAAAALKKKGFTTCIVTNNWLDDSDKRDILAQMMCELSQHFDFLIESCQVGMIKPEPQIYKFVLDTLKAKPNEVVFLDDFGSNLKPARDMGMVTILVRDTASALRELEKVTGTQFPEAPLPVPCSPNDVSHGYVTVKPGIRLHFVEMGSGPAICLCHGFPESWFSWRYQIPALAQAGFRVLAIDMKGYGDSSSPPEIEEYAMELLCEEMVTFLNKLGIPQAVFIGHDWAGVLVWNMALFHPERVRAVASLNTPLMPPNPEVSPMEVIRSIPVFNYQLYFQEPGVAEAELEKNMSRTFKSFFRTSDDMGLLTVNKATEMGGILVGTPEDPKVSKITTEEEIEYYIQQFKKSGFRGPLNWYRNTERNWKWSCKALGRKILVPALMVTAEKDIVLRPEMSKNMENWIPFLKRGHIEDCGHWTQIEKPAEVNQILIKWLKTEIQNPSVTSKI

[14] = target: human sEH (human liver cytosol) (Homo sapiens, UniProt P34913); assay: LC/MS assay with 14,15-EET substrate, human liver cytosol; type: biochemical

Row | Compound | logP at 24 h [1] | AUC [3] | half-life [3] | IC50 [9] | IC50 [10] | IC50 [13] | C24/IC50 (ratio of blood concentration over the IC50 with recombinant human sEH after 24 hour) ([3]; oral 0.3 mg/kg cassette dosing) | other results
1 | O=C(O)CCCCCCCCCCCNC(=O)NC12CC3CC(CC(C3)C1)C2 [compound 1, 12-(3-adamantane-1-yl-ureido)-dodecanoic acid] | 3 | – | – | – | – | – | – | –
2 | CCOCCOCCOCCCCCNC(=O)NC12CC3CC(CC(C3)C1)C2 [compound 3, 1-adamantan-1-yl-3-{5-[2-(2-ethoxyethoxy)ethoxy]pentyl}urea] | 2.6 | 0.04 µM·h | 1 h | – | – | – | – | AUC [2]: 0.03 µM·h; Cmax [2]: 20 ± 10 nM; Tmax [2]: 0.2 ± 0.1 h; half-life [2]: 1.7 ± 1 h; clearance [4]: 96.7 mL/min/kg; half-life [4]: 9.6 ± 1.8 min
3 | CC(=O)N1CCC(NC(=O)NC23CC4CC(CC(C4)C2)C3)CC1 [compound 14, N-(1-acetylpiperidin-4-yl)-N’-(adamant-1-yl) urea] | – | – | – | – | – | – | – | solubility at 24 h [5]: 490 µg/mL (≈ 1530 µM); Cmax [6]: 80 ± 30 nM; Tmax [6]: 1 ± 0.7 h; half-life [6]: 1.7 ± 0.4 h; clearance [7]: 40 mL/min/kg; half-life [7]: 0.6 ± 0.1 h
4 | CC(=O)N1CCC(NC(=O)Nc2ccc(OC(F)(F)F)cc2)CC1 [compound 24] | – | – | – | – | – | – | – | T1/2 (terminal half-life) ([3]; oral 0.3 mg/kg cassette dosing, n=1, non-compartmental): >24 h; Water solubility [8]: 51 µg/mL; LogP (pH 7.4) ([1]; octanol / 0.1 M sodium phosphate buffer at pH 7.4): 2.3
5 | CS(=O)(=O)N1CCC(NC(=O)Nc2ccc(OC(F)(F)F)cc2)CC1 [compound 27, 1-(1-methylsulfonyl-piperidin-4-yl)-3-(4-trifluoromethoxy-phenyl)-urea] | 1.9 | 28.3 µM·h | > 24 h | 26 nM | 5 nM | 9 nM | – | IC50 ([11]; IC50, CMNPC, Human, purified recombinant enzyme at […]): 3 nM; IC50 ([12]; IC50 on human sEH in buffer, buffer): 150 nM; IC50 ([12]; IC50 on human sEH incubated in sEH depleted canine liver cytosol, sEH depleted canine liver cytosol supplemented with purified human recombinant sEH): 120 nM; IC50 [14]: 26 nM
6 | CC(=O)N1CCC(NC(=O)NC2CCCCCC2)CC1 [compound 31, 1-cycloheptyl-3-(1-acetylpiperidin-4-yl) urea] | – | 3.67 µM·h | 5.2 h | 300 nM | 12 nM | 7 nM | 1.0 | IC50 ([11]; IC50, CMNPC, Human): 28 nM
7 | COC(=O)c1ccc(NC(=O)NC23CC4CC(CC(C4)C2)C3)cc1O [compound 62, 4-(3-adamantane-1-yl-ureido)-2-hydroxyl-benzoic acid methyl ester] | – | 0.21 µM·h | – | 6 nM | 10 nM | 8 nM | 0.7 | IC50 [11]: 3 nM
8 | O=C(Nc1ccc(Cl)cc1)Nc1ccc(Cl)c(Cl)c1 [compound 74, triclocarban, reference compound] | – | 0.03 µM·h | 0.5 h | – | – | – | <0.1 | –
